{
  "source": "patent US6872805B2",
  "about": "(Bristol-Myers Squibb Company, priority 2000, dated 2005)",
  "key": {"[1]": {"target": "HCV NS3/4A protease complex (Hepatitis C virus genotype 1a, UniProt P27958, C1454S/C1711G)", "assay": "Recombinant HCV NS3/4A protease complex FRET peptide assay (strain not stated)", "assay_type": "biochemical"}, "human leukocyte elastase": {"target": "T1, human leukocyte elastase (Homo sapiens, UniProt P08246)", "T1 sequence (P08246 30-267)": "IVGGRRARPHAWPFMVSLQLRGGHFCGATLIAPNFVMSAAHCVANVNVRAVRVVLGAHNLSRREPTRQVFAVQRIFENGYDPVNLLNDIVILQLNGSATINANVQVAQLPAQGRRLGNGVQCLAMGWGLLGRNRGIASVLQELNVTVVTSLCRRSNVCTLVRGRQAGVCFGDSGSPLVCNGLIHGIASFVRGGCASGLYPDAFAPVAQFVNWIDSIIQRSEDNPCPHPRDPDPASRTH", "assay": "Specificity assay, human leukocyte elastase", "assay_type": "biochemical", "settings": "read-out: HLE", "description": "The specificities of compounds of the present invention were determined against a variety of serine proteases: human leukocyte elastase, porcine pancreatic elastase and bovine pancreatic α-chymotrypsin and one cysteine protease: human liver cathepsin B. In all cases a 96-well plate format protocol using calorimetric […] (pNA) substrate specific for each enzyme was used as described previously (Patent WO 00/09543) with some modifications.\nEach assay included a 1 h enzyme-inhibitor pre-incubation at RT followed by addition of substrate and hydrolysis to ˜30% conversion as measured on a Spectramax Pro microplate reader. Compound concentrations varied from 100 to 0.4 μM depending on their potency.\nThe final conditions and protocol for each assay was as reported previously (Patent WO 00/09543) with the inclusion of an additional assay: • 50 mM Tris-HCl pH 8, 0.5M Na2SO4, 50 mM NaCl, 0.1 mM EDTA, 3% DMSO, 0.01% Tween-20 with 133 μM succ-AAA-PNA and 20 nM Elastase\nThe percentage of inhibition was calculated using the formula: [1−((UVinh−UVblank)/(UVctl−UVblank))]×100"}, "[2]": {"assay": "In vivo rat PK studies (systemic and liver exposure)", "parameters": "species or system male Sprague Dawley rats", "settings": "dosed orally or intravenously", "description": "All animal experimentation was conducted in accordance with USDA guidelines under the Animal Welfare Act. To assess the systemic and liver exposure, representative compounds were orally (gastric intubation) or intravenously (bolus or infusion) administered to male Sprague Dawley rats bearing indwelling jugular vein cannulae. At pre-determined times after dosing, serial blood samples were taken from the implanted cannulae. Plasma was separated from EDTA-treated blood by centrifugation and stored at −20° C. until analysis. The liver was removed from rats after carbon dioxide asphyxiation, rinsed with saline and blotted dry. For analysis, a 2 g portion of the outer part of one lobe was minced and homogenized with 4 ml of 80% acetonitrile/HBSS buffer. After centrifugation, the supernatant was kept at −20° C. until analysis. Quantitation of represenatative compounds in plasma and liver homogenate samples was performed by a specific LC/MS/MS method optimized for each compound."}},
  "data": [
    {"smiles": "C=CC1C[C@]1(NC(=O)[C@@H]1C[C@@H](Oc2cc(-c3ccccc3)nc3cc(OC)ccc23)CN1C(=O)C(NC(=O)OC(C)(C)C)C(C)(C)C)C(=O)NS(=O)(=O)c1ccc(NC(C)=O)cc1", "note": "(stereo partly shown) [Compound 58]", "values": [
      {"measurement": "IC50", "setting": "[1]; IC50, NS3/4A protease enzyme assay, strain not stated, activity ranges", "result": "< 50", "unit": "nM"},
      {"measurement": "IC50", "setting": "[1]; IC50, strain not stated", "result": 21, "unit": "nM"},
      {"measurement": "IC50", "setting": "human leukocyte elastase", "result": 35000, "unit": "nM"},
      {"measurement": "viral target exposure", "setting": "[2]", "result": "viral target exposure was achieved"}
    ]}
  ]
}
